Measurements: patent publication US20230087078A1, “COMPOSITIONS AND METHODS FOR THE TREATMENT OF PANCREATIC CANCER” (Washington University, priority 2020, published 2023)

Legend:
autophagy markers = test: Autophagy markers (western blot, LC3 reporter) after SN38 with or without MK2 inhibitors; type: cell-based, human; settings: for SN38-induced p-Beclin1 and LC3-II: MK2 inhibitor with SN38
TNFα protein = test: TNFα ELISA of Pa01c supernatant; type: cell-based, human; settings: Pa01c cells, SN38 10 μM for 16 hours
Experimental: FIG. 3E is a graph summarizing TNFα ELISA of Pa01c cells treated with control or SN38 10 μM for 16 hours overnight. P values from one-way ANOVA with Dunnett's multiple comparison test and error bars are mean+SEM. *P<0.0332.
(§1) Because TAK1 is known to be a downstream kinase of TNF, TGFβ, and IL-1 receptors, a candidate approach was used to survey expression of TNFα/β, TGFβ, and IL-1α/β.

TNFα mRNA expression [1] = test: qPCR of cytokine expression after SN38, MIA Paca-2; type: cell-based, human; settings: MIA Paca-2 cells, SN38 10 μM for 16 hours
Experimental: (§2) FIG. 3D contains graphs summarizing the results of qPCR for TNFα, TNFβ, TGFβ, IL-1α, and IL-1β in Mia paca-2 (right) and Pa01c (left) cells treated with control or SN38 10 μM for 16 hours. P values from two-away ANOVA with Dunnett's multiple comparison test and error bars are mean+SEM. ***P<0.0002, ****P<0.0001.
(§3) RNAzol RT (Sigma) was used to isolate total RNA. cDNA was made with High Capacity cDNA reverse transcription kit (Thermo Fisher Scientific, 4368814). qPCR was performed with SYBR-Green reagent (Applied Biosciences). All experiments were performed in biological duplicates or triplicates (n=2, 3).
as §1

TNFα mRNA expression [2] = test: qPCR of cytokine expression after SN38, Pa01c; type: cell-based, human; settings: for SN38-induced induction of TNFα: inhibitor 2 μM before SN38
Experimental: as §2
FIG. 3F is a graph summarizing the results of qPCR showing TNFα expression in Pa01c cells following treatment with SN38 10 μM alone for 16 hours, or in combination with TAKli 2 μM or IKKi 2 μM for 24 hours prior to treatment with SN38 10 μM for 16 hours. P values from two-away ANOVA with Dunnett's multiple comparison test and error bars are mean+SEM. *P<0.0247, **P<0.0025.
as §3, §1

p-Hsp27 [3] = test: Immunoblot of p-MK2 and p-Hsp27 after individual chemotherapy agents; type: cell-based, human; settings: for induction of p-MK2 and p-Hsp27: PDAC lines tested
Experimental: Western blotting was performed according to standard procedures. Cells grown in culture were washed twice in ice-cold 1×PBS and lysed in ice-cold RIPA buffer (10 nM Tris pH 7.4, 50 nM NaCl, 0.05% SDS, 0.05% Triton X-100, 0.5% sodium deoxycholate, and 10 nM EDTA) containing 1× protease inhibitor (Sigma), NaVO3, Na pyrophosphate, and NaF. Protein lysates were quantified by Bradford assay and suspended in 6×SDS sample buffer, followed by boiling for 5 min at 95 C. 40 ug of protein lysate was resolved on SDS-PAGE and blotted on nitrocellulose membrane. Antibodies used included p38 MAPK (CST 8690S), p38 MAPK T180/Y182 (CST 9215S), MK2 total (CST 12155S), MK2 T334 (CST 3041S), MK2 T222 (3316S), Hsp27 total (CST 2042S), Hsp27 phos S82 (9709S), ? H2Ax (CST 9718S), JNK T183/Y185 (CST 4668), GSK3 beta phos S9 (CST 5558), ATR phos T1989 (CST 58014), ATM phos 51981 (CST 4526), AMPKα1 phos T172 (CST 2335T), and GAPDH (sc-47724). Blots were imaged using chemiluminescent substrate (Thermo Scientific).

PDAC cells = test: Apoptosis after SN38 with autophagy inhibition (HCQ, Beclin-1 ablation); type: cell-based, human
Description: FIG. 4D contains immunoblot images of MIA paca-2 and Pa01c cells following treatment with SN38, HCQ, or the combination. P values from two-way ANOVA with Sidak's multiple comparison test and error bars are mean+SEM. ***P=0.0009, *P=0.035.
FIG. 4F contains immunoblot images of MIA paca-2 control cells or Beclin 1 (BECN1) knockout treated with SN38, ATI-450, or the combination.
FIG. 4G contains scatter plots (left) and a graph summarizing quantification of a FACS analysis of MIA paca-2 control cells or Beclin 1 knockout cells treated with control (DMSO) or SN38 10 μM for 24 hours; graphic quantification of annexin V positive cells on the right.

PDAC lines = test: Recombinant TNFα treatment of PDAC lines: p-Hsp27, PARP cleavage, Annexin V; type: cell-based, human; settings: for TNFα-induced p-Hsp27 / apoptosis: inhibitor plus TNFα
[4] = system: p-p38, p-MK2, and p-Hsp27; test: Immunoblot of SN38-induced p-p38, p-MK2, p-Hsp27 and apoptosis with upstream kinase inhibitors; type: cell-based, human; settings: inhibitor in combination with SN38
Experimental: FIG. 3A contains immunoblot images showing p-p38, p-MK2, and p-Hsp27 activation in MIA paca-2 and Pa01c cells treated with SN38 10 μM for 16 hours alone or with IRAK4 inhibitor 4 μM, HCQ 20 μM, ATM inhibitor 20 μM, ATR inhibitor 20 μM, or TAK1 inhibitor 2 μM.
FIG. 3B contains immunoblot images of MIA paca-2 and Pa01c cells treated with SN38 10 μM alone for 16 hours or in combination with TAK1 inhibitor 2 μM for 16 hours.
To investigated the mechanism by which DNA damage activates MK2 and Hsp27, PDAC cells were treated with SN38 alone or in combination with inhibitors of IRAK4 (PF06650833), TLR9 (hydroxychloroquine, or HCQ), ATM (KU55933), ATR (VE821), and TAK1 (5z-7-oxozeanol).

MIA paca-2 cells = test: FACS Annexin V and PI staining, MK2 inhibitor with or without SN38; type: cell-based, human; settings: for apoptosis: MK2 inhibitor combined with SN38
Description: P values from one-way ANOVA with Dunnett's multiple comparison test and error bars are mean+SEM. **P<0.0021, ****P<0.0001.

p-Hsp27 [5] = test: Immunoblot of p-Hsp27 with MK2 inhibitors (SN38 or UV); type: cell-based, human; settings: at baseline and following SN38 treatment
Experimental: FIG. 2E contains immunoblot images showing PARP cleavage of MIA paca-2 and Pa01c cells treated as in FIG. 1D.
FIG. 2H contains immunoblot images of p-p38, p-MK2, and p-Hsp27 from MIA paca-2 and Pa01c cells treated with 40 J/m2 of ultraviolet light (UV) alone or with MK2 inhibitor PF-3644022.
FIG. 2I contains immunoblot images of p-MK2 and p-Hsp27 from Pa01c cells treated with 40 J/m2 UV light, alone or with MK2 inhibitor ATI-450.
Western blotting was performed according to standard procedures. Cells grown in culture were washed twice in ice-cold 1×PBS and lysed in ice-cold RIPA buffer ([…]) containing 1× protease inhibitor (Sigma), NaVO3, Na pyrophosphate, and NaF. Protein lysates were quantified by Bradford assay and suspended in 6×SDS sample buffer, followed by boiling for 5 min at 95 C. 40 ug of protein lysate was resolved on SDS-PAGE and blotted on nitrocellulose membrane. Antibodies used included p38 MAPK (CST 8690S), p38 MAPK T180/Y182 (CST 9215S), MK2 total (CST 12155S), MK2 T334 (CST 3041S), MK2 T222 (3316S), Hsp27 total (CST 2042S), Hsp27 phos S82 (9709S), ? H2Ax (CST 9718S), JNK T183/Y185 (CST 4668), GSK3 beta phos S9 (CST 5558), ATR phos T1989 (CST 58014), ATM phos 51981 (CST 4526), AMPKα1 phos T172 (CST 2335T), and GAPDH (sc-47724). […]

[6] = system: non-pancreatic cancer cell lines (colon, gastric, breast); test: Apoptosis of non-pancreatic cancer cell lines with SN38 and ATI-450; type: cell-based; settings: combination SN38 and ATI-450
KPPC mice [7] = test: Autochthonous KPPC model, survival and tumor analysis; type: in vivo
Experimental: (§4) Tumors were formalin-fixed, paraffin-embedded, sectioned, and stained with hematoxylin and eosin (H&E). Immunohistochemistry (IHC) staining was performed using the following antibodies: p-Hsp27 S82 (CST cat #9709S), p-MK2 T334 (CST cat #3041S), p-p38 T180/Y182 (CST cat #9215S). Ten 200× or 400× power fields were analyzed per tumor independently by two individuals, and data were presented as mean+SEM of collated data. IHC sections were interpreted independently by two individual reviewers and representative data agreeable to all members were presented.
(§5) KPPC (p48-Cre/p53Flox/Flox LSL-KRASG12D) mice were created as described in previous publications. Treatment began six weeks after birth when tumors spontaneously form in vivo. FOLFIFINOX treatment was given by weekly intraperitoneal (I.P.) injection of 5-FU 25 mg/kg, irinotecan 17.5 mg/kg, and oxaliplatin 3.3 mg/kg. ATI-450 treatment was given as drug-impregnated chow, ad libitum, starting six weeks after birth; when given in combination with chemotherapy, ATI-450 chow was begun the day prior to initiation of chemotherapy.
All mice were treated beginning at 6 weeks of age until humane endpoints were reached.

KPPC mice [8] = test: KPPC mice, ATI-450 chow for two weeks, histologic analysis of pancreata; type: in vivo
Experimental: as §4, §5
To complement the human xenograft models, which lacked the desmoplastic tumor microenvironment and intact immune system essential for PDAC development, an autochthonous KPPC (p48-Cre; p53flox/flox; LSL-KRASG12D) mouse model was treated and observed. KPPC mice were treated with vehicle or ATI-450 ad libitum in chow starting from 6 weeks-old of age when foci of invasive PDAC start to appear. After two weeks of treatment, all mice were euthanized and their pancreata were subjected to histologic analysis.

[9] = patients with rheumatoid arthritis; cited from earlier work

Molecule: CCc1c2c(nc3ccc(O)cc13)-c1cc3c(c(=O)n1C2)COC(=O)[C@]3(O)CC [SN38]
- LC3-GFP reporter expression (autophagy markers; PDAC cells): significantly decreased
- autophagy markers: p-ULK1 (S555), p-AMPKα (T172), p-Beclin1 (S90), p62 (autophagy markers; western blots): markedly induced
- TNFα protein in supernatant (TNFα protein): increased TNFα protein
- TNFα mRNA expression (TNFα mRNA expression [1]): ~30 fold
- TNFβ expression (TNFα mRNA expression [2]; Pa01c cells following SN38): elevated
- TNFα mRNA expression (TNFα mRNA expression [2]; Pa01c cells, SN38 10 μM for 16 hours): ~30 fold
- activation of p-Hsp27 (p-Hsp27 [3]; MIA Paca-2 cells, vehicle, 5-FU, SN38 or oxaliplatin individually): most strongly activates Hsp27
- induction of p-MK2 and p-Hsp27 (p-Hsp27 [3]): potently induced

Molecule: CCN(CCO)CCCC(C)Nc1ccnc2cc(Cl)ccc12 (stereo not drawn) [hydroxychloroquine]
- apoptosis (PDAC cells; PDAC cells treated with SN38 and HCQ): significantly higher levels of apoptosis

Molecule: CC(C)(C)C(=O)N1N=CC[C@H]1c1ccccc1 [RIPK inhibitor]
- TNFα-induced p-Hsp27 (PDAC lines): did not block p-Hsp27
- apoptosis (PDAC lines): did not block p-Hsp27 or alter apoptosis
- SN38-induced p-p38, p-MK2, and p-Hsp27 [4]: not blocked

Molecule: Cc1ccc(-c2ccc3c(ccc4sc5c(c43)NC[C@@H](C)NC5=O)n2)cn1 [PF-3644022]
- SN38-induced p-Beclin1 and LC3-II (autophagy markers): robustly suppress
- toxicity to PDAC cells (MIA paca-2 cells; MK2 inhibitor alone): not toxic
- apoptosis (MIA paca-2 cells): significantly increased apoptosis
- p-Hsp27 (p-Hsp27 [5]): abolished

Molecule: Nc1ccn([C@@H]2O[C@H](CO)[C@@H](O)C2(F)F)c(=O)n1 [Gemcitabine]
- induction of p-MK2 and p-Hsp27 (p-Hsp27 [3]): much lower degree

Molecule: O=C(Nc1cc(C(F)(F)F)cc(C(F)(F)F)c1)c1cc(Cl)ccc1O [IMD0354]
- SN38-induced induction of TNFα (TNFα mRNA expression [2]; Pa01c cells): abrogated

Molecule: TNFα
- apoptosis (PARP cleavage and Annexin V staining) (PDAC lines; recombinant TNFα alone): induced apoptosis
- p-Hsp27 (PDAC lines; recombinant TNFα alone): upregulated

Molecule: Cc1cnc(-c2ccnc(C(C)(C)O)n2)cc1-n1c(C)cc(OCc2ncc(F)cc2F)c(Cl)c1=O [ATI-450]
- SN38-induced p-Beclin1 and LC3-II (autophagy markers): robustly suppress
- apoptosis [6]: sensitized the cells to apoptosis
- TNFα-induced p-Hsp27 (PDAC lines): abrogated
- apoptosis (PDAC lines): augmented apoptosis
- apoptosis (MIA paca-2 cells): replicated
- p-Hsp27 (p-Hsp27 [5]): replicated
- apoptosis (PDAC cells; Beclin-1-ablated cells, added to SN38): only marginally increased apoptosis
- PDAC lesions (KPPC mice [7]; addition of ATI-450 to FOLFIRINOX): almost completely ablated
- tumor histology (H&E) (KPPC mice [7]; mouse, in vivo): smaller but retained a significant fraction of overt PDAC
- survival (KPPC mice [7]; treated from 6 weeks of age until humane endpoints): improved survival significantly greater than vehicle
- p-Hsp27 (IHC), in vivo on-target effect (KPPC mice [7]; tumor sections): completely suppressed
- PDAC burden of pancreata (KPPC mice [8]; ATI-450 in chow from 6 weeks of age, two weeks): significantly lower PDAC burdens
- fractions of normal or early PanIN lesions (KPPC mice [8]; ATI-450 in chow, two weeks): relatively higher fractions
- tumor fibrosis by Sirius Red staining (KPPC mice [8]; ATI-450 in chow, two weeks): significantly less fibrotic
- progression of PDAC (KPPC mice [8]; single agent): significantly delayed
- tolerability [9]: well-tolerated

Molecule: COc1cc(O)c2c(c1)/C=C/C[C@H](O)[C@H](O)C(=O)/C=C\C[C@H](C)OC2=O [5z-7-oxozeanol, (5Z)-7-Oxozeaenol]
- SN38-induced p-p38, p-MK2, and p-Hsp27 [4]: completely blocked
- apoptotic effect of SN38 [4]: potentiated
- SN38-induced induction of TNFα (TNFα mRNA expression [2]; Pa01c cells): abrogated
